Results taken from patent publication US10947210B2 (priority 2015, dated 2021).

Biological target: HCV RNA-dependent RNA polymerase (NS5B) (Hepatitis C virus genotype 1b (isolate BK) (HCV), UniProt P26663)
Assay: RNA-Dependent RNA HCV NS5B (polymerase) Assay and IC50 Determination
Type: biochemical
Conditions: purified HCV NS5B polymerase, polyA:U16 substrate, 32P-UTP incorporation; read-out: IC50
Outline: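 Purified NS5B was incubated with 0.5 uM polyA:U16, 10 μM UTP plus ^32P-UTP in 50 mM Hepes-KOH pH 7.5, 5 mM MgCl2, 5 mM DTT, 2% glycerol and 0.01% Triton X-100. Inhibitor reactions ran 60 min at 37° C, and radiolabelled RNA product was quantified after filter capture. IC50 values were obtained from concentration series.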

HCV RNA-dependent RNA polymerase (NS5B), sequence (P26663 2420-3010): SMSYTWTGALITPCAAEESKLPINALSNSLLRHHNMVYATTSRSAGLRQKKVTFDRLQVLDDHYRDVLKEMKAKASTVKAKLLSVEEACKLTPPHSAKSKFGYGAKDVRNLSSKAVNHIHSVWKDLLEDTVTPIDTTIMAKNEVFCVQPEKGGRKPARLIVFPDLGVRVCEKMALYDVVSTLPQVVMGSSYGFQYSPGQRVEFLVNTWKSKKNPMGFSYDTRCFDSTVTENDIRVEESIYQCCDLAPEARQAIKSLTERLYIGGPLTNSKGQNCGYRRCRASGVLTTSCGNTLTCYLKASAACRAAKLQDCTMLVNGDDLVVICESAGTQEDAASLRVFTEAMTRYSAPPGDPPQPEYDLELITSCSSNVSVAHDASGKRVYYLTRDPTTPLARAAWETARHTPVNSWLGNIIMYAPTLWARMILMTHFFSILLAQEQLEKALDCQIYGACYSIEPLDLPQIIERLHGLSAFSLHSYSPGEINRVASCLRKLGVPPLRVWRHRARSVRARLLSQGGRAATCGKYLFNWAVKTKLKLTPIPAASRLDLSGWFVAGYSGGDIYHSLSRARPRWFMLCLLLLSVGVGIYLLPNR

Structure (SMILES) | IC50 [nM]
CNC(=O)c1c(-c2ccc(F)cc2)oc2cc(N(CCOCCOCc3ccc(C(=O)O)c(C)c3)S(C)(=O)=O)c(C3CC3)cc12 [Compound 18-10A, 4-[2-(2-{[5-Cyclopropyl-2-(4-fluoro-phenyl)-3-methylcarbamoyl-benzofuran-6-yl]-methanesulfonyl-amino}-ethoxy)-ethoxymethyl]-2-methyl-benzoic Acid] | 100 to 1000
CNC(=O)c1c(-c2ccc(F)cc2)oc2cc(N(CCOCCOCCOCc3ccc(C(=O)O)cc3)S(C)(=O)=O)c(C3CC3)cc12 [Compound 30-7, 4-{2-[2-(2-{[5-Cyclopropyl-2-(4-fluoro-phenyl)-3-methylcarbamoyl-benzofuran-6-yl]-methanesulfonyl-amino}-ethoxy)-ethoxy]-ethoxymethyl}-benzoic acid] | > 1000
CNC(=O)c1c(-c2ccc(F)cc2)oc2cc(N(CCOCCOCCCc3ccccc3C(=O)OC)S(C)(=O)=O)c(C3CC3)cc12 [Compound 12-6A, 2-{3-[2-(2-{[5-Cyclopropyl-2-(4-fluoro-phenyl)-3-methylcarbamoyl-benzofuran-6-yl]-methanesulfonyl-amino}-ethoxy)-ethoxy]-propyl}-benzoic Acid Methyl Ester] | 100 to 1000
CNC(=O)c1c(-c2ccc(F)cc2)oc2cc(N(CCOCCOCCCc3cccc(C(=O)O)c3)S(C)(=O)=O)c(C3CC3)cc12 [Compound 12-7B, 3-{3-[2-(2-{[5-Cyclopropyl-2-(4-fluoro-phenyl)-3-methylcarbamoyl-benzofuran-6-yl]-methanesulfonyl-amino}-ethoxy)-ethoxy]-propyl}-benzoic Acid] | < 100
CNC(=O)c1c(-c2ccc(F)cc2)oc2cc(N(CCOCCOCCOCCOCCOCc3cccc(C(C)=O)c3)S(C)(=O)=O)c(C3CC3)cc12 [Compound 02-8D, 6-({2-[2-(2-{2-[2-(3-Acetyl-benzyloxy)-ethoxy]-ethoxy}-ethoxy)-ethoxy]-ethyl}-methanesulfonyl-amino)-5-cyclopropyl-2-(4-fluoro-phenyl)-benzofuran-3-carboxylic Acid Methylamide] | > 1000
CNC(=O)c1c(-c2ccc(F)cc2)oc2cc(N(CCCCCOCc3ccc(C(=O)OC)cc3)S(C)(=O)=O)c(C3CC3)cc12 [Compound 16-6, 4-(5-{[5-Cyclopropyl-2-(4-fluoro-phenyl)-3-methylcarbamoyl-benzofuran-6-yl]-methanesulfonyl-amino}-pentyloxymethyl)-benzoic Acid Methyl Ester] | > 1000
CNC(=O)c1c(-c2ccc(F)cc2)oc2cc(N(CCOCCOCc3ccc(C(=O)OC)c([N+](=O)[O-])c3)S(C)(=O)=O)c(C3CC3)cc12 [Compound 29-7, 4-[2-(2-{[5-Cyclopropyl-2-(4-fluoro-phenyl)-3-methylcarbamoyl-benzofuran-6-yl]-methanesulfonyl-amino}-ethoxy)-ethoxymethyl]-2-nitro-benzoic Acid Methyl Ester] | 100 to 1000
CCOC(=O)c1ccc(OCCOCCOCCN(c2cc3oc(-c4ccc(F)cc4)c(C(=O)NC)c3cc2C2CC2)S(C)(=O)=O)cc1 [Compound 14-6C, 4-{2-[2-(2-{[5-Cyclopropyl-2-(4-fluoro-phenyl)-3-methylcarbamoyl-benzofuran-6-yl]-methanesulfonyl-amino}-ethoxy)-ethoxy]-ethoxy}-benzoic Acid Ethyl Ester] | > 1000
CNC(=O)c1c(-c2ccc(F)cc2)oc2cc(N(CCOCCOCCOC(C)(C)C(=O)O)S(C)(=O)=O)c(C3CC3)cc12 [Compound 26-7B, 2-{2-[2-(2-{[5-Cyclopropyl-2-(4-fluoro-phenyl)-3-methylcarbamoyl-benzofuran-6-yl]-methanesulfonyl-amino}-ethoxy)-ethoxy]-ethoxy}-2-methyl-propionic Acid] | 100 to 1000
CNC(=O)c1c(-c2ccc(F)cc2)oc2cc(N(CCOCCOCc3ccc(C(=O)OC)c(N)c3)S(C)(=O)=O)c(C3CC3)cc12 [Compound 29-9, 2-Amino-4-[2-(2-{[5-cyclopropyl-2-(4-fluoro-phenyl)-3-methylcarbamoyl-benzofuran-6-yl]-methanesulfonyl-amino}-ethoxy)-ethoxymethyl]-benzoic Acid Methyl Ester] | 100 to 1000
CNC(=O)c1c(-c2ccc(F)cc2)oc2cc(N(CCOCCOCCc3ccc(C(=O)O)cc3)S(C)(=O)=O)c(C3CC3)cc12 [Compound 11-6C, 4-{2-[2-(2-{[5-Cyclopropyl-2-(4-fluoro-phenyl)-3-methylcarbamoyl-benzofuran-6-yl]-methanesulfonyl-amino}-ethoxy)-ethoxy]-ethyl}-benzoic Acid] | 100 to 1000
CCOC(=O)c1ccc(COCCOCCN(c2cc3oc(-c4ccc(F)cc4)c(C(=O)NC)c3cc2C2CC2)S(C)(=O)=O)c2ccccc12 [Compound 20-7, 4-[2-(2-{[5-Cyclopropyl-2-(4-fluoro-phenyl)-3-methylcarbamoyl-benzofuran-6-yl]-methanesulfonyl-amino}-ethoxy)-ethoxymethyl]-naphthalene-1-carboxylic Acid Ethyl Ester] | 100 to 1000
CNC(=O)c1c(-c2ccc(F)cc2)oc2cc(N(CCOCCCCc3ccc(C(=O)OC)cc3)S(C)(=O)=O)c(C3CC3)cc12 [Compound 13-7A, 4-[4-(2-{[5-Cyclopropyl-2-(4-fluoro-phenyl)-3-methylcarbamoyl-benzofuran-6-yl]-methanesulfonyl-amino}-ethoxy)-butyl]-benzoic Acid Methyl Ester] | 100 to 1000
CCOC(=O)COC(=O)c1ccc(COCCOCCN(c2cc3oc(-c4ccc(F)cc4)c(C(=O)NC)c3cc2C2CC2)S(C)(=O)=O)cc1 [Compound 06-8B8, 4-[2-(2-{[5-Cyclopropyl-2-(4-fluoro-phenyl)-3-methylcarbamoyl-benzofuran-6-yl]-methanesulfonyl-amino}-ethoxy)-ethoxymethyl]-benzoic Acid Ethoxycarbonylmethyl Ester] | 100 to 1000
CCOC(=O)c1ccc(COCCOCCN(c2cc3oc(-c4ccc(F)cc4)c(C(=O)NC)c3cc2C2CC2)S(C)(=O)=O)cc1 [Compound 06-8B1, 4-[2-(2-{[5-Cyclopropyl-2-(4-fluoro-phenyl)-3-methylcarbamoyl-benzofuran-6-yl]-methanesulfonyl-amino}-ethoxy)-ethoxymethyl]-benzoic Acid Ethyl Ester] | > 1000
CNC(=O)c1c(-c2ccc(F)cc2)oc2cc(N(CCOCCOCCOc3ccc(C(=O)O)cc3)S(C)(=O)=O)c(C3CC3)cc12 [Compound 14-7C, 4-{2-[2-(2-{[5-Cyclopropyl-2-(4-fluoro-phenyl)-3-methylcarbamoyl-benzofuran-6-yl]-methanesulfonyl-amino}-ethoxy)-ethoxy]-ethoxy}-benzoic Acid] | 100 to 1000
CNC(=O)c1c(-c2ccc(F)cc2)oc2cc(N(CCOCCCCc3ccc(C(=O)O)cc3)S(C)(=O)=O)c(C3CC3)cc12 [Compound 13-8A, 4-[4-(2-{[5-Cyclopropyl-2-(4-fluoro-phenyl)-3-methylcarbamoyl-benzofuran-6-yl]-methanesulfonyl-amino}-ethoxy)-butyl]-benzoic Acid] | 100 to 1000
CNC(=O)c1c(-c2ccc(F)cc2)oc2cc(N(CCOCCOCCc3ccccc3C(=O)O)S(C)(=O)=O)c(C3CC3)cc12 [Compound 11-6A, 2-{2-[2-(2-{[5-Cyclopropyl-2-(4-fluoro-phenyl)-3-methylcarbamoyl-benzofuran-6-yl]-methanesulfonyl-amino}-ethoxy)-ethoxy]-ethyl}-benzoic Acid] | < 100
CNC(=O)c1c(-c2ccc(F)cc2)oc2cc(N(CCOCCOCc3ccc(C(=O)O)c4ccccc34)S(C)(=O)=O)c(C3CC3)cc12 [Compound 20-8, 4-[2-(2-{[5-Cyclopropyl-2-(4-fluoro-phenyl)-3-methylcarbamoyl-benzofuran-6-yl]-methanesulfonyl-amino}-ethoxy)-ethoxymethyl]-naphthalene-1-carboxylic Acid] | < 100
CCOC(=O)c1cccc(CCOCCOCCN(c2cc3oc(-c4ccc(F)cc4)c(C(=O)NC)c3cc2C2CC2)S(C)(=O)=O)c1 [Compound 11-5B, 3-{2-[2-(2-{[5-Cyclopropyl-2-(4-fluoro-phenyl)-3-methylcarbamoyl-benzofuran-6-yl]-methanesulfonyl-amino}-ethoxy)-ethoxy]-ethyl}-benzoic Acid Ethyl Ester] | > 1000
CNC(=O)c1c(-c2ccc(F)cc2)oc2cc(N(CCOCCOCCOCc3cccc(C(C)=O)c3)S(C)(=O)=O)c(C3CC3)cc12 [Compound 02-8B, 6-[(2-{2-[2-(3-Acetyl-benzyloxy)-ethoxy]-ethoxy}-ethyl)-methanesulfonyl-amino]-5-cyclopropyl-2-(4-fluoro-phenyl)-benzofuran-3-carboxylic Acid Methylamide] | > 1000
CNC(=O)c1c(-c2ccc(F)cc2)oc2cc(N(CCOCCOCc3ccc(C(=O)O)cc3C)S(C)(=O)=O)c(C3CC3)cc12 [Compound 18-10B, 4-[2-(2-{[5-Cyclopropyl-2-(4-fluoro-phenyl)-3-methylcarbamoyl-benzofuran-6-yl]-methanesulfonyl-amino}-ethoxy)-ethoxymethyl]-3-methyl-benzoic Acid] | < 100
CNC(=O)c1c(-c2ccc(F)cc2)oc2cc(N(CCOCCOCCCCc3cccc(C(=O)CC(=O)C(=O)O)c3)S(C)(=O)=O)c(C3CC3)cc12 [Compound 30-12, 4-(3-{4-[2-(2-{[5-Cyclopropyl-2-(4-fluoro-phenyl)-3-methylcarbamoyl-benzofuran-6-yl]-methanesulfonyl-amino}-ethoxy)-ethoxy]-butyl}-phenyl)-2,4-dioxo-butyric acid] | > 1000
CNC(=O)c1c(-c2ccc(F)cc2)oc2cc(N(CCOCCOCCOCCOCCOCc3ccc(C(C)=O)cc3)S(C)(=O)=O)c(C3CC3)cc12 [Compound 02-8I, 6-({2-[2-(2-{2-[2-(4-Acetyl-benzyloxy)-ethoxy]-ethoxy}-ethoxy)-ethoxy]-ethyl}-methanesulfonyl-amino)-5-cyclopropyl-2-(4-fluoro-phenyl)-benzofuran-3-carboxylic Acid Methylamide] | > 1000
